ChEMBL document CHEMBL1201862, “PubChem BioAssay data set” (2004)
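These data come from cells grown in 96-well plates and exposed to compound for 48 hours at five concentrations. Abbreviation: GI50, concentration required for 50% inhibition of growth.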 Active and inactive are the calls of the source. Rule as the data show it: active = GI50 up to about 1.1 µM and inactive = higher.

How the values were obtained:
Test in all cases: NCI anticancer screen, dose series, 48 h
A549 = tested on: A549
CAKI-1 = tested on: CAKI-1
EKVX = tested on: EKVX
HCC 2998 = tested on: HCC 2998
HCT-15 = tested on: HCT-15
KM12 = tested on: KM12
M14 = tested on: M14
OVCAR-5 = tested on: OVCAR-5
SF-268 = tested on: SF-268
SF-295 = tested on: SF-295
SK-MEL-2 = tested on: SK-MEL-2
SNB-19 = tested on: SNB-19
SNB-75 = tested on: SNB-75
UACC-62 = tested on: UACC-62
UO-31 = tested on: UO-31
SF-539 = tested on: SF-539

| Structure (SMILES) | GI50 (A549) | GI50 (CAKI-1) | GI50 (EKVX) | GI50 (HCC 2998) | GI50 (HCT-15) [µM] | GI50 (KM12) | GI50 (M14) | GI50 (OVCAR-5) | GI50 (SF-268) | GI50 (SF-295) | GI50 (SK-MEL-2) | GI50 (SNB-19) | GI50 (SNB-75) | GI50 (UACC-62) | GI50 (UO-31) | GI50 (SF-539) |
| --- | --- | --- | --- | --- | --- | --- | --- | --- | --- | --- | --- | --- | --- | --- | --- | --- |
| O=C(O)c1c[nH]c2c(=O)[nH]cnc12 | > 100 µM (inactive) | > 100 µM (inactive) | > 100 µM (inactive) | > 100 µM (inactive) | > 100 | > 100 µM (inactive) | > 100 µM (inactive) | > 100 µM (inactive) | > 100 µM (inactive) | > 100 µM (inactive) | > 100 µM (inactive) | > 100 µM (inactive) | > 100 µM (inactive) | > 100 µM (inactive) | > 100 µM (inactive) | – |
| CCOC(=O)CN(Cn1cncn1)Cn1cncn1 | 40.6 µM (inactive) | 56 µM (inactive) | 43.8 µM (inactive) | 33.2 µM (inactive) | 22 | 20.2 µM (inactive) | > 10 µM (inactive) | > 100 µM (inactive) | – | 39.4 µM (inactive) | 38.2 µM (inactive) | – | 20.6 µM (inactive) | 33.3 µM (inactive) | > 100 µM (inactive) | – |
| C#C[C@@]1(O)CCCC2=CC(=O)C[C@]21C | > 100 µM (inactive) | – | > 100 µM (inactive) | > 100 µM (inactive) | > 100 | > 100 µM (inactive) | > 100 µM (inactive) | > 100 µM (inactive) | > 100 µM (inactive) | > 100 µM (inactive) | > 100 µM (inactive) | > 100 µM (inactive) | – | – | > 100 µM (inactive) | > 100 µM (inactive) |
| COc1cccc2ccc(C(=O)c3ccccc3)nc12 | > 100 µM (inactive) | > 100 µM (inactive) | > 100 µM (inactive) | > 100 µM (inactive) | > 100 | > 100 µM (inactive) | > 100 µM (inactive) | > 100 µM (inactive) | > 100 µM (inactive) | > 100 µM (inactive) | > 100 µM (inactive) | – | > 100 µM (inactive) | > 100 µM (inactive) | 2.22 µM (inactive) | > 100 µM (inactive) |
| COC(=O)N/N=C/c1oc(-c2ccccc2)c(-c2ccccc2)c1[N+](=O)[O-] | > 100 µM (inactive) | > 100 µM (inactive) | – | > 100 µM (inactive) | > 100 | > 100 µM (inactive) | > 100 µM (inactive) | > 100 µM (inactive) | > 100 µM (inactive) | > 100 µM (inactive) | – | > 100 µM (inactive) | > 100 µM (inactive) | > 100 µM (inactive) | > 100 µM (inactive) | > 100 µM (inactive) |
| CCCC(C)NC1=C(NC(C)=O)C(=O)c2ccccc2C1=O (centres undefined) | > 100 µM (inactive) | – | > 100 µM (inactive) | > 100 µM (inactive) | > 100 | > 100 µM (inactive) | > 100 µM (inactive) | – | > 100 µM (inactive) | > 100 µM (inactive) | > 100 µM (inactive) | > 100 µM (inactive) | > 100 µM (inactive) | > 100 µM (inactive) | > 100 µM (inactive) | > 100 µM (inactive) |
| CC1=C(CO)C(=O)O[C@@H]([C@@H](C)[C@H]2CC[C@H]3[C@@H]4C[C@H]5O[C@]56[C@@H](O)C=CC(=O)[C@]6(C)[C@H]4CC[C@]23C)C1 [WITHAFERIN A] | 3.31 µM (inactive) | 0.463 µM (active) | – | 0.509 µM (active) | 0.446 | 3.72 µM (inactive) | 0.423 µM (active) | 1.91 µM (inactive) | 0.352 µM (active) | 4.22 µM (inactive) | 0.601 µM (active) | 2.99 µM (inactive) | 4.11 µM (inactive) | 1.45 µM (inactive) | 1.09 µM (active) | 1.34 µM (inactive) |
